The results in this text go back to US20230277511A1, “RAPAMYCIN (RAPA) COMPOSITION AND PREPARATION METHOD THEREOF” (priority 2020, published 2023).

The test relates to AS model mice (ApoE−/− mice). The experiment in a line: Therapeutic effect on AS in AS model mice (plaque area). It is filed as in vivo. To be noted: 1.5 mg/kg intraperitoneally every two days for 3 months, mean±SD, FIG. 10. How it is done: Animal: Apolipoprotein gene-knockout mice (ApoE−/− mice) each with a weight of 18 g to 25 g were purchased from Peking University Laboratory Animal Center.
Construction of AS model mice: The mice were raised to be 8 weeks old in an SPF-grade environment (room temperature: 23° C., relative humidity: 65%, and 12 h light-dark cycle) and then fed with a high-fat feed for 12 weeks to obtain the AS model mice, and then each of the AS model mice was administered. Blood vessels were collected and stained, and a proportion of a plaque area was calculated according to the following formula: AA:AA=P/PO. The data were expressed by mean±standard deviation (SD). The t-test was adopted for statistical analysis. P<0.05 indicated a significant difference. All data were analyzed by software.
Grouping and administration regimen: Blank group: Each of the mice was intraperitoneally injected with 0.2 mL of NS every two days. Control group: Each of the mice was intraperitoneally injected with a RAPA solution diluted with NS to a desired concentration (administration amount: 1.5 mg/kg) every two days. Drug group: Each of the mice was intraperitoneally injected with the RAPA composition in Example 4 at 1.5 mg/kg every two days. The administration was conducted continuously for 3 months, during which state changes in mice were observed. […]

Regarding `CO[C@H]1C[C@@H]2CC[C@@H](C)[C@@](O)(O2)C(=O)C(=O)N2CCCC[C@H]2C(=O)O[C@H]([C@H](C)C[C@@H]2CC[C@@H](O)[C@H](OC)C2)CC(=O)[C@H](C)/C=C(\C)[C@@H](O)[C@@H](OC)C(=O)[C@H](C)C[C@H](C)/C=C/C=C/C=C/1C` [RAPA, rapamycin], the “plaque area/total vascular area” value is listed as 48.33%±2.851%.
